Here are results for three compounds from patent US11401279B2, “Pyrido[3,2-d]pyrimidine compounds as immunomodulators” (Incyte Corporation, priority 2019, dated 2022).

Each structure is given as a SMILES string.

One data set addresses PD-L1 (Homo sapiens (Human), UniProt Q9NZQ7). Briefly: PD-L1 whole blood internalization assay. Format: cell-based. The note with it: PD-L1 internalization in human whole blood, CD14+ cells, interferon γ, 24 hour.
In data set [1] the test system is U2OS/PD-L1 cells and Jurkat-PD-1-SHP cells. Briefly: Src homology region 2 domain-containing phosphatase (SHP) assay. Particulars: Homo sapiens, U2OS; PathHunter chemiluminescence, 2 hours. The format is cell-based. Put shortly:
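U2OS/PD-L1 cells and Jurkat-PD-1-SHP cells, 5000 each, were co-incubated with compound for 2 h at 37 °C in RPMI with 1% FBS. PathHunter enzyme-fragment complementation chemiluminescence reported PD-1/SHP recruitment. IC50 was fitted from percent of DMSO-control activity versus log concentration.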

Data set [2] can be described thus: In vivo pharmacokinetics in rats. More on the design: species or system Sprague Dawley rats. Particulars: rat, cassette dosing; for clearance / half-life / Vd / Cmax / AUC(0-inf): male, Sprague-Dawley, plasma; for clearance / half-life / Vd: 1.0 mg/kg IV; for Vd: read-out: Vss; for Cmax / AUC(0-inf) / F: 3.0 mg/kg PO; for AUC(0-inf): read-out: AUC0-inf.
The nature of data set [3]: In vivo pharmacokinetics in monkeys. Particulars: cynomolgus monkey, cassette dosing; for clearance / half-life / Vd / AUC(0-inf) / Cmax: both sexes, plasma; for clearance / half-life / Vd: 1.0 mg/kg IV; for Vd: read-out: Vss; for AUC(0-inf) / Cmax / F: 3.0 mg/kg PO. As for the experimental part: For in vivo pharmacokinetic experiments, test compounds were administered to male Sprague Dawley rats or male and female Cynomolgus monkeys intravenously or via oral gavage. For intravenous (IV) dosing, test compounds were dosed at 0.5 to 1 mg/kg using a formulation of 10% dimethylacetamide (DMAC) in acidified saline via IV bolus for rat and 5 min or 10 min IV infusion for monkey. For oral (PO) dosing, test compounds were dosed at 1.0 to 3.0 mg/kg using 5% DMAC in 0.5% methylcellulose in citrate buffer (pH 3.5). Blood samples were collected at predose and various time points up to 24 hours postdose. All blood samples were collected using EDTA as the anticoagulant and centrifuged to obtain plasma samples. The plasma concentrations of test compounds were determined by LC-MS methods. The measured plasma concentrations were used to calculate PK parameters by standard noncompartmental methods using Phoenix® WinNonlin software program (version 7.0, Pharsight Corporation).
In rats and monkeys, cassette dosing of test compounds were conducted to obtain preliminary PK parameters.

The target of another data set is PD-1/PD-L1 (Homo sapiens (Human), UniProt Q9NZQ7). Briefly: Homogeneous Time-Resolved Fluorescence (HTRF) PD-1/PD-L1 binding assay. Particulars: recombinant human PD-1 and PD-L1. An outline of the steps:
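Human PD-1 (25-167, Fc-tagged; 3 nM) and PD-L1 (19-238, His-tagged; 10 nM) were preincubated 40 min with inhibitors in PBS pH 7.4, 0.05% Tween-20, 0.1% BSA, 1% DMSO, at 25 °C. Eu-anti-human IgG (1 nM) and anti-His-APC (20 nM) were added for 60 min. The 665/620 nm HTRF ratio gave IC50 by curve fitting.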
On the technique in general: TR-FRET usually uses a lanthanide donor and a delayed reading to cut background.

PD-L1, sequence (Q9NZQ7 19-290): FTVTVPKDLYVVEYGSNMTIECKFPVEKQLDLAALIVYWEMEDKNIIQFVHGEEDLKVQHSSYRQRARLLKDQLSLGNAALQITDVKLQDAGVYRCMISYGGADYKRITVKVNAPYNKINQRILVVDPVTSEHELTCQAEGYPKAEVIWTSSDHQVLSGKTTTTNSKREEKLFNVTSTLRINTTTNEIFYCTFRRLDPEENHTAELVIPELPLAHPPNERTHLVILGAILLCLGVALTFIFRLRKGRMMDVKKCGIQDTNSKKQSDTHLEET
PD-1/PD-L1, sequence (Q9NZQ7 19-238): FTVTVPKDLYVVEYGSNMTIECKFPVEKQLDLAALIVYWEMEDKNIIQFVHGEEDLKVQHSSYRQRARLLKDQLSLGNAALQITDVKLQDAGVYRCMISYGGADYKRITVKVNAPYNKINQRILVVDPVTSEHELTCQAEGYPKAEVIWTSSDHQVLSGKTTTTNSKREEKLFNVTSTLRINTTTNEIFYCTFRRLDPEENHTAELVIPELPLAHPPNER

On PD-L1, `Cc1c(Nc2nc(C(F)F)nc3cc(CN4CC[C@@H](O)C4)cnc23)cccc1-c1cccc(NC(=O)c2nc3c(n2C)CCN(CCC24CCC(C(=O)O)(CC2)C4)C3)c1Cl` [Example 1, (R)-4-(2-(2-((2-chloro-3′-((2-(difluoromethyl)-7-((3-hydroxypyrrolidin-1-yl)methyl)pyrido[3,2-d]pyrimidin-4-yl)amino)-2′-methyl-[1,1′-biphenyl]-3-yl)carbamoyl)-1-methyl-1,4,6,7-tetrahydro-5H-imidazo[4,5-c]pyridin-5-yl)ethyl)bicyclo[2.2.1]heptane-1-carboxylic Acid] returned an IC50 of 7.9 nM. In data set [1], this compound had an IC50 of 3 nM. Also, in data set [2], the clearance is 6.15 mL/min/kg, the half-life is 4.4 h, the Vd turned out to be 1.75 L/kg and the highest level (Cmax) was 166 nM. For the same compound, in data set [2], the AUC(0-inf) came to 1.4 µM·h and the F was 14%. For the same compound, in data set [3], the clearance is 4.25 mL/min/kg, the half-life is 6.35 h, the Vd turned out to be 1.01 L/kg and the AUC(0-inf) was determined as 8.24 µM·h. In data set [3], this compound had a Cmax of 794 nM and an F of 59%. Besides, the IC50 on PD-1/PD-L1 was determined as 2.2 nM.

`Cc1c(Nc2nc(C(F)F)nc3cc(CN4CC[C@@](C)(O)C4)cnc23)cccc1-c1cccc(NC(=O)c2nc3c(n2C)CCN(CCC24CCC(C(=O)O)(CC2)C4)C3)c1Cl` [Example 2, (R)-4-(2-(2-((2-chloro-3′-((2-(difluoromethyl)-7-((3-hydroxy-3-methylpyrrolidin-1-yl)methyl)pyrido[3,2-d]pyrimidin-4-yl)amino)-2′-methyl-[1,1′-biphenyl]-3-yl)carbamoyl)-1-methyl-1,4,6,7-tetrahydro-5H-imidazo[4,5-c]pyridin-5-yl)ethyl)bicyclo[2.2.1]heptane-1-carboxylic Acid] registered an IC50 against PD-L1 of 8 nM. Further, the IC50 in data set [1] was 3.9 nM. Besides, in data set [2], the clearance was 7.85 mL/min/kg, the half-life was 4.4 h, the Vd was determined as 2.63 L/kg and the highest level (Cmax) was 111 nM. Further, in data set [2], the AUC(0-inf) worked out at 1.07 µM·h and the F was 14%. Besides, in data set [3], the clearance is 4.78 mL/min/kg, the half-life was 6.23 h, the Vd was determined as 1.36 L/kg and the AUC(0-inf) was found to be 6.84 µM·h. In addition, in data set [3], the peak concentration (Cmax) was determined as 579 nM and the F is 57%. Moreover, on PD-1/PD-L1, the IC50 worked out at 1.5 nM.

Compound `Cc1c(NC(=O)c2nc3c(n2C)CCN(CCC24CCC(C(=O)O)(CC2)C4)C3)cccc1-c1cccc(Nc2nc(C(F)F)nc3cc(CN4CC[C@@H](O)C4)cnc23)c1C` [Example 5, (R)-4-(2-(2-((3′-((2-(difluoromethyl)-7-((3-hydroxypyrrolidin-1-yl)methyl)pyrido[3,2-d]pyrimidin-4-yl)amino)-2,2′-dimethyl-[1,1′-biphenyl]-3-yl)carbamoyl)-1-methyl-1,4,6,7-tetrahydro-5H-imidazo[4,5-c]pyridin-5-yl)ethyl)bicyclo[2.2.1]heptane-1-carboxylic Acid] registered an IC50 at PD-L1 of 60 nM. The IC50 in data set [1] was found to be 4 nM. In data set [2], the clearance was 6.93 mL/min/kg, the half-life is 3.9 h, the Vd amounted to 1.63 L/kg and the Cmax worked out at 241 nM. In addition, in data set [2], the AUC(0-inf) amounted to 1.65 µM·h and the F stood at 19%. Also, in data set [3], the clearance is 4.93 mL/min/kg, the half-life is 8.48 h, the Vd worked out at 1.14 L/kg and the AUC(0-inf) was determined as 11.1 µM·h. For the same compound, in data set [3], the concentration peaked (Cmax) at 1300 nM and the F was found to be 89%. In addition, the half-inhibitory concentration (IC50) on PD-1/PD-L1 worked out at 2.1 nM.

Usually IC50 stands for the point on the concentration scale where inhibition reaches its midpoint. For orientation: clearance means the rate of elimination divided by the concentration. The low end stands for a low capacity for elimination, the high end for a high capacity for elimination. In general, half-life refers to the time in which the quantity being followed falls by half. Low readings indicate rapid decline, high ones slow decline. As a reminder, the Cmax is the maximum level reached in the sampled fluid or tissue.
